Results on ten compounds are retold here after patent publication US20240158446A1, “CYCLIC COMPOUND HAVING SELECTIVE INHIBITORY ACTION ON KRAS OVER HRAS AND NRAS” (CHUGAI SEIYAKU KABUSHIKI KAISHA, priority 2021, published 2024).

SMILES strings stand for the structures.

In assay [1] the target is GDP-bound HRAS wild-type protein (Homo sapiens, UniProt P01112). Briefly: Binding to HRAS by surface plasmon resonance (SPR), Single Cycle Kinetics. The settings on record: SPR; GDP-bound HRAS wild-type protein vs GDP-bound KRAS wild-type protein; KD ratio class.
GDP-bound HRAS wild-type protein, sequence (P01112 whole entry): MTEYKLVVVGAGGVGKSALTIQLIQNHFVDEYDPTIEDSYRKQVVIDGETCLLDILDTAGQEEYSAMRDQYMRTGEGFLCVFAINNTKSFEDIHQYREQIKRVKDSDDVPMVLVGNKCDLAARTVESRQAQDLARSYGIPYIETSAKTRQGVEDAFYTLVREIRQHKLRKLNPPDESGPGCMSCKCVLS
In assay [2] the target is GDP-bound NRAS wild-type protein (Homo sapiens, UniProt P01111). The experiment in a line: Binding to NRAS by surface plasmon resonance (SPR), Single Cycle Kinetics. The settings on record: SPR; GDP-bound NRAS wild-type protein vs GDP-bound KRAS wild-type protein; KD ratio class.
GDP-bound NRAS wild-type protein, sequence (P01111 whole entry): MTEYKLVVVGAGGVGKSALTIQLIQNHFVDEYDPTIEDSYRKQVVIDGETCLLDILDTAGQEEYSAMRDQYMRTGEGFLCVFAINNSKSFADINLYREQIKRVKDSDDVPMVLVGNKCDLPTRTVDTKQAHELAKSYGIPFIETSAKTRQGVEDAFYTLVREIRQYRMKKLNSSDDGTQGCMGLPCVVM
Assay [3] concerns the target GDP-bound KRAS wild-type protein (Homo sapiens, UniProt P01116). The experiment in a line: Binding to KRAS by surface plasmon resonance (SPR), Single Cycle Kinetics. The settings on record: SPR, Single Cycle Kinetics, 1:1 binding model; GDP-bound KRAS wild-type protein; read-out: KRAS KD.
Assay [4] has as its system human lung cancer strain NCI-H441.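 Further: cell proliferation inhibition after four days measured by CellTiter-Glo.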

GDP-bound KRAS wild-type protein, sequence (P01116 whole entry): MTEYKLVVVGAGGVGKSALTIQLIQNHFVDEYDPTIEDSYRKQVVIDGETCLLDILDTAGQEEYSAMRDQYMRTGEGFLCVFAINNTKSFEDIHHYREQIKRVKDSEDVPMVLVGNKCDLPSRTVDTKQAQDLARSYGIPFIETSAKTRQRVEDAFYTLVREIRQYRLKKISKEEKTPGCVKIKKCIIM

For the compound `CCO[C@@H]1C[C@H]2C(=O)NC3(CCC3)C(=O)N(C)[C@@H](C(CC)CC)C(=O)N(C)[C@H](C(=O)N(C)C)CC(=O)N(C)[C@@H](CC)C(=O)N[C@@H]([C@@H](C)CC)C(=O)N(C)CC(=O)N(C)[C@H]3C/C=C\CCN(C3=O)[C@@H](Cc3ccc(C(F)(F)F)cc3)C(=O)N(C)CC(=O)N[C@@H](CCc3ccc4sccc4c3)C(=O)N2C1` [PP1223], the “HRAS/KRAS (ratio of KD value for HRAS to KD value for KRAS)” value in assay [1] is “A (a compound having 10 or more and less than 20 is denoted as A)”. Besides, the “NRAS/KRAS (ratio of KD value for NRAS to KD value for KRAS)” value in assay [2] is listed as “AA (a compound having 20 or more is denoted as AA)”. Besides, the Kd in assay [3] stood at 1.2 nM. The IC50 in assay [4] came out at 117 nM.
With `CCC[C@H]1C(=O)N[C@@H]([C@@H](C)CC)C(=O)N(C)CC(=O)N(C)[C@H]2C/C=C\CCN(C2=O)[C@@H](Cc2ccc(C(F)(F)F)cc2)C(=O)N(C)CC(=O)N[C@@H](CCc2ccc3sccc3c2)C(=O)N2C[C@H](OCC)C[C@H]2C(=O)NC2(CCC2)C(=O)N(C)[C@@H](C(CC)CC)C(=O)N(C)[C@H](C(=O)N(C)C)CC(=O)N1C` [PP1224], in assay [1], the “HRAS/KRAS (ratio of KD value for HRAS to KD value for KRAS)” value was “A (a compound having 10 or more and less than 20 is denoted as A)”. In addition, in assay [2], the “NRAS/KRAS (ratio of KD value for NRAS to KD value for KRAS)” value is “A (a compound having 10 or more and less than 20 is denoted as A)”. The Kd in assay [3] stood at 1.2 nM. The compound further gave an IC50 in assay [4] of 122 nM.
On to `CCO[C@@H]1C[C@H]2C(=O)NC3(CCC3)C(=O)N(C)[C@@H](C(CC)CC)C(=O)N(C)[C@H](C(=O)N(C)C)CC(=O)N(C)[C@@H](CC(C)C)C(=O)N[C@@H]([C@@H](C)CC)C(=O)N(C)CC(=O)N(C)[C@H]3C/C=C\CCN(C3=O)[C@@H](Cc3ccc(C(F)(F)F)cc3)C(=O)N(C)CC(=O)N[C@@H](CCc3ccc4sccc4c3)C(=O)N2C1` [PP1225], for which the “HRAS/KRAS (ratio of KD value for HRAS to KD value for KRAS)” value in assay [1] was “A (a compound having 10 or more and less than 20 is denoted as A)”. The “NRAS/KRAS (ratio of KD value for NRAS to KD value for KRAS)” value in assay [2] is listed as “AA (a compound having 20 or more is denoted as AA)”. In assay [3], the Kd was 1.1 nM. Besides, in assay [4], inhibition was half-maximal at 92.5 nM (IC50).
Regarding `CCCCCC[C@H]1C(=O)N[C@@H]([C@@H](C)CC)C(=O)N(C)CC(=O)N(C)[C@H]2C/C=C\CCN(C2=O)[C@@H](Cc2ccc(C(F)(F)F)cc2)C(=O)N(C)CC(=O)N[C@@H](CCc2ccc3sccc3c2)C(=O)N2C[C@H](OCC)C[C@H]2C(=O)NC2(CCC2)C(=O)N(C)[C@@H](C(CC)CC)C(=O)N(C)[C@H](C(=O)N(C)C)CC(=O)N1C` [PP1226], the “HRAS/KRAS (ratio of KD value for HRAS to KD value for KRAS)” value in assay [1] is “A (a compound having 10 or more and less than 20 is denoted as A)”. Besides, the “NRAS/KRAS (ratio of KD value for NRAS to KD value for KRAS)” value in assay [2] is “AA (a compound having 20 or more is denoted as AA)”. Besides, in assay [3], the Kd amounted to 2.4 nM. The same compound came in with an IC50 in assay [4] of 106 nM.
Regarding `CCO[C@@H]1C[C@H]2C(=O)NC3(CCC3)C(=O)N(C)[C@@H](C(CC)CC)C(=O)N(C)[C@H](C(=O)N(C)C)CC(=O)N(C)[C@@H](CC3CC3)C(=O)N[C@@H]([C@@H](C)CC)C(=O)N(C)CC(=O)N(C)[C@H]3C/C=C\CCN(C3=O)[C@@H](Cc3ccc(C(F)(F)F)cc3)C(=O)N(C)CC(=O)N[C@@H](CCc3ccc4sccc4c3)C(=O)N2C1` [PP1227], in assay [1], the “HRAS/KRAS (ratio of KD value for HRAS to KD value for KRAS)” value is “A (a compound having 10 or more and less than 20 is denoted as A)”. Also, the “NRAS/KRAS (ratio of KD value for NRAS to KD value for KRAS)” value in assay [2] was “A (a compound having 10 or more and less than 20 is denoted as A)”. The Kd in assay [3] stood at 1.6 nM. In assay [4], this compound yielded an IC50 of 128 nM.
With `CCO[C@@H]1C[C@H]2C(=O)NC3(CCC3)C(=O)N(C)[C@@H](C(CC)CC)C(=O)N(C)[C@H](C(=O)N(C)C)CC(=O)N(C)[C@@H](COC)C(=O)N[C@@H]([C@@H](C)CC)C(=O)N(C)CC(=O)N(C)[C@H]3C/C=C\CCN(C3=O)[C@@H](Cc3ccc(C(F)(F)F)cc3)C(=O)N(C)CC(=O)N[C@@H](CCc3ccc4sccc4c3)C(=O)N2C1` [PP1229], the “HRAS/KRAS (ratio of KD value for HRAS to KD value for KRAS)” value in assay [1] is “A (a compound having 10 or more and less than 20 is denoted as A)”. For the same compound, the “NRAS/KRAS (ratio of KD value for NRAS to KD value for KRAS)” value in assay [2] is “A (a compound having 10 or more and less than 20 is denoted as A)”. The Kd in assay [3] came to 1.3 nM. Besides, in assay [4], half-maximal inhibition (IC50) was put at 144 nM.
As for `CCO[C@@H]1C[C@H]2C(=O)NC3(CCC3)C(=O)N(C)[C@@H](C(CC)CC)C(=O)N(C)[C@H](C(=O)N(C)C)CC(=O)N(C)[C@@H](CC)C(=O)N[C@@H]([C@@H](C)CC)C(=O)N(C)CC(=O)N(C)[C@H]3C/C=C\CCN(C3=O)[C@@H](Cc3ccc(C(F)(F)F)cc3)C(=O)N(C)CC(=O)N[C@@H](CCc3cc(F)c(Cl)c(F)c3)C(=O)N2C1` [PP1230], the “HRAS/KRAS (ratio of KD value for HRAS to KD value for KRAS)” value in assay [1] was “A (a compound having 10 or more and less than 20 is denoted as A)”. Moreover, the “NRAS/KRAS (ratio of KD value for NRAS to KD value for KRAS)” value in assay [2] is “A (a compound having 10 or more and less than 20 is denoted as A)”. Besides, the Kd in assay [3] was 0.77 nM. This compound also had an IC50 in assay [4] of 110 nM.
Consider `CCC[C@H]1C(=O)N[C@@H]([C@@H](C)CC)C(=O)N(C)CC(=O)N(C)[C@H]2C/C=C\CCN(C2=O)[C@@H](Cc2ccc(C(F)(F)F)cc2)C(=O)N(C)CC(=O)N[C@@H](CCc2cc(F)c(Cl)c(F)c2)C(=O)N2C[C@H](OCC)C[C@H]2C(=O)NC2(CCC2)C(=O)N(C)[C@@H](C(CC)CC)C(=O)N(C)[C@H](C(=O)N(C)C)CC(=O)N1C` [PP1231], for which the “HRAS/KRAS (ratio of KD value for HRAS to KD value for KRAS)” value in assay [1] was “A (a compound having 10 or more and less than 20 is denoted as A)”. Also, the “NRAS/KRAS (ratio of KD value for NRAS to KD value for KRAS)” value in assay [2] is “AA (a compound having 20 or more is denoted as AA)”. In addition, in assay [3], the Kd turned out to be 0.56 nM. In assay [4], this compound had an IC50 of 23.1 nM.
Take `CCO[C@@H]1C[C@H]2C(=O)NC3(CCC3)C(=O)N(C)[C@@H](C(CC)CC)C(=O)N(C)[C@H](C(=O)N(C)C)CC(=O)N(C)[C@@H](CC(C)C)C(=O)N[C@@H]([C@@H](C)CC)C(=O)N(C)CC(=O)N(C)[C@H]3C/C=C\CCN(C3=O)[C@@H](Cc3ccc(C(F)(F)F)cc3)C(=O)N(C)CC(=O)N[C@@H](CCc3cc(F)c(Cl)c(F)c3)C(=O)N2C1` [PP1232]: in assay [1], the “HRAS/KRAS (ratio of KD value for HRAS to KD value for KRAS)” value is “A (a compound having 10 or more and less than 20 is denoted as A)”. The “NRAS/KRAS (ratio of KD value for NRAS to KD value for KRAS)” value in assay [2] was “A (a compound having 10 or more and less than 20 is denoted as A)”. In addition, in assay [3], the Kd came out at 0.67 nM. The compound also displayed an IC50 in assay [4] of 59.7 nM.
As to `CCO[C@@H]1C[C@H]2C(=O)NC3(CCC3)C(=O)N(C)[C@@H](C(CC)CC)C(=O)N(C)[C@H](C(=O)N(C)C)CC(=O)N(C)[C@@H](CC3CC3)C(=O)N[C@@H]([C@@H](C)CC)C(=O)N(C)CC(=O)N(C)[C@H]3C/C=C\CCN(C3=O)[C@@H](Cc3ccc(C(F)(F)F)cc3)C(=O)N(C)CC(=O)N[C@@H](CCc3cc(F)c(Cl)c(F)c3)C(=O)N2C1` [PP1233], the “HRAS/KRAS (ratio of KD value for HRAS to KD value for KRAS)” value in assay [1] is “A (a compound having 10 or more and less than 20 is denoted as A)”. For the same compound, in assay [2], the “NRAS/KRAS (ratio of KD value for NRAS to KD value for KRAS)” value was “AA (a compound having 20 or more is denoted as AA)”. Further, in assay [3], the Kd was found to be 0.66 nM. Also, the IC50 in assay [4] was determined as 34.7 nM.
